pIC50: −log10 of the molar value. Where two headings read alike, the source gives them in different places.
Key:
OCI-AML5 cells = assay: Dose-response proliferative assay in OCI-AML5 (4 days, CellTiterGlo); format: cell-based, H. sapiens; settings: read-out: IC50 in AML5
Description: Cell lines were purchased from the ATCC or donated from collaborators. OCI-AML5 cell line was cultured in αMEM, 10% heat-inactivated FBS supplemented with 10 ng/mL GM-CSF, OCI-AML1, U2OS and HEK293T cell lines in DMEM, 10% heat-inactivated FBS. Cells were maintained at 37 °C in 5% CO2 atmosphere.
Dose-response assays in primary AML specimens were performed as in chemical screen (see above) with the exception that compounds were tested in serial dilution (8 dilutions, 1:4, 10 μM down to 0.5 nM). Dose-response assays in OCI-AML5 cell line were conducted similarly with the following modifications: 300 cells per well were seeded in 50 μL of cell line media and cell viability was evaluated after 4 days in culture.

CDK1 = target: T1, CDK1 (Homo sapiens, UniProt P06493); assay: CDK1 in vitro kinase activity, single concentration 1 μM; format: biochemical; settings: single concentration 1 μM
T1 construct: purchased BPS Bioscience 79597
Description: (§1) Kinase activity was assessed using the kinase assay kits from BPS Bioscience for CDK1, CDK9 and CDK12 with Kinase Glo MAX in duplicates. Compounds were tested at a single concentration of 1 μM for CDK1 and CDK9 activity, and in a dilution ranging from 0.64 nM to 50 μM for CDK12 activity. Chemiluminescence was read using the Neo Synergy BioTek plate reader.

CDK9/CyclinT = target: T2, CDK9/CyclinT (Homo sapiens, UniProt P50750); assay: CDK9/CyclinT in vitro kinase activity, single concentration 1 μM; format: biochemical; settings: single concentration 1 μM
T2 construct: purchased BPS Bioscience 79628
Description: as §1

[1] = test system: OCI-AML5 cells expressing shRNAs targeting CDK1, 2, 4, 7, 9, cyclin K; assay: Dose response in OCI-AML5 expressing shRNAs targeting CDK1, 2, 4, 7, 9, cyclin K or control; format: cell-based, H. sapiens; settings: for Class: class from shRNA IC50 profile and cyclin K-eGFP degradation
cyclin KeGFP = assay: Cyclin KeGFP reporter system (eGFP/mCherry MFI by flow cytometry);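 note: 10 μM compound for 3 h relative to DMSO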; format: cell-based, H. sapiens; settings: cyclin K-eGFP reporter
Description: We used the cyclin KeGFP reporter system previously described (Słabicki et al, [2020]). Lentiviral vector (Addgene plasmid #169930) was used to infect OCI-AML5 at a MOI of 5 and were selected with puromycin. Cells were seeded in methylcellulose and let grown as colonies for 10 days. Colonies were isolated, expanded and selected based on cyclin KeGFP fluorescence in presence and absence of cyclin K degrader molecules. Selected G7 clone was used for all reported experiments. Fluorescent signal of cyclin KeGFP and mCherry were quantified by flow cytometry (BD LSRII) in each condition and the geometric mean fluorescence intensity (MFI) were calculated using FlowJo (BD Biosciences). The ratio of eGFP to mCherry was normalized to DMSO-treated cells.

[2] = test system: OCI-AML5 cells expressing shRNA targeting CUL4A or CUL4B; assay: Dose response in OCI-AML5 expressing shRNAs targeting CUL4A, CUL4B or control; format: cell-based, H. sapiens; settings: ratio of IC50 in shCUL4A vs shCTRL OCI-AML5 cells
[3] = Homo sapiens, OCI-AML-5, OCI-AML5 cells
[4] = Homo sapiens, OCI-AML-5, OCI-AML5 expressing shRNA CCNK (cyclin K), read-out: IC50 shRNA CCNK
[5] = Homo sapiens, OCI-AML-5, OCI-AML5 expressing shRNA CDK1, read-out: IC50 shRNA CDK1
[6] = Homo sapiens, OCI-AML-5, OCI-AML5 expressing shRNA CDK2, read-out: IC50 shRNA CDK2
[7] = Homo sapiens, OCI-AML-5, OCI-AML5 expressing shRNA CDK4, read-out: IC50 shRNA CDK4
[8] = Homo sapiens, OCI-AML-5, OCI-AML5 expressing shRNA CDK7, read-out: IC50 shRNA CDK7
[9] = Homo sapiens, OCI-AML-5, OCI-AML5 expressing shRNA CDK9, read-out: IC50 shRNA CDK9
[10] = OCI-AML5 expressing shRNA CCNK (cyclin K), read-out: IC50 shRNA CCNK
[11] = OCI-AML5 expressing shRNA CDK1, read-out: IC50 shRNA CDK1
[12] = OCI-AML5 expressing shRNA CDK2, read-out: IC50 shRNA CDK2
[13] = OCI-AML5 expressing shRNA CDK4, read-out: IC50 shRNA CDK4
[14] = OCI-AML5 expressing shRNA CDK7, read-out: IC50 shRNA CDK7
[15] = OCI-AML5 expressing shRNA CDK9, read-out: IC50 shRNA CDK9

T2 sequence (P50750 whole entry): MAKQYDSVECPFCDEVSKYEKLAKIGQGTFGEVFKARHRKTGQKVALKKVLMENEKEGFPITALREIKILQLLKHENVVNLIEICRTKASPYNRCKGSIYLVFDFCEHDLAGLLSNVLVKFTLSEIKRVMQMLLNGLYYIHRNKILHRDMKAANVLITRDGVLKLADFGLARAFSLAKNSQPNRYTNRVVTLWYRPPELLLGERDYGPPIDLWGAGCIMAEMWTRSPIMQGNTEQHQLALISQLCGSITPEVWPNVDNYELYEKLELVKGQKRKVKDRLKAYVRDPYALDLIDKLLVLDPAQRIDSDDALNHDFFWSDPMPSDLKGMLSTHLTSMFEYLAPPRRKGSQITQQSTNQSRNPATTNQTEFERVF
T2 sequence (O60563 whole entry partner): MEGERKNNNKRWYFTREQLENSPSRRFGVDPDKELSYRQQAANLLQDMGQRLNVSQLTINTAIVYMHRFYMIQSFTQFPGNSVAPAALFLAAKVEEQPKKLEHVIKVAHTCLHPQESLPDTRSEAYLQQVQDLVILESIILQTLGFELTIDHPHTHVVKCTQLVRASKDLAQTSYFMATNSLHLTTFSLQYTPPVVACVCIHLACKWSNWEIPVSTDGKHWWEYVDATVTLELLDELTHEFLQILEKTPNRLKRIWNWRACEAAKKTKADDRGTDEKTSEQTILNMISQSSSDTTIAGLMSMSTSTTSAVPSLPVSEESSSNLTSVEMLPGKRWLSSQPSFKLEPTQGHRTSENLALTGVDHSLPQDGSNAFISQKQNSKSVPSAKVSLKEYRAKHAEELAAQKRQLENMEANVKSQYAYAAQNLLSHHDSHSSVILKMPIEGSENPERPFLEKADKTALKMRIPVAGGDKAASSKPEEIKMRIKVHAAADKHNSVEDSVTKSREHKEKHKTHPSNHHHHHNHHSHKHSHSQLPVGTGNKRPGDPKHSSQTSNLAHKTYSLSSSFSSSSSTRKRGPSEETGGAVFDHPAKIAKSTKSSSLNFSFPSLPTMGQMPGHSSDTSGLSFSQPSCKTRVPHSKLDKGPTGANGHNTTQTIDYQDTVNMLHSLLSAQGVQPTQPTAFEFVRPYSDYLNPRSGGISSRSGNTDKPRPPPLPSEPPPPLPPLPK
T1 sequence (P06493 whole entry): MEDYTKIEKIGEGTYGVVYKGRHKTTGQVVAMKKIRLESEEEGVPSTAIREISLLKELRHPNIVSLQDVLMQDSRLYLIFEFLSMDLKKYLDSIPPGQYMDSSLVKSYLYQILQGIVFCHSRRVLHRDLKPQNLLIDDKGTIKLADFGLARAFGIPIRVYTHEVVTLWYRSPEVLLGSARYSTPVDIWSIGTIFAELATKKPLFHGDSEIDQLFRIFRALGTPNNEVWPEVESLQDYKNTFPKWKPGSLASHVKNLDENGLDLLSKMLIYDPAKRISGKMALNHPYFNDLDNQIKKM
T1 sequence (P14635 whole entry partner): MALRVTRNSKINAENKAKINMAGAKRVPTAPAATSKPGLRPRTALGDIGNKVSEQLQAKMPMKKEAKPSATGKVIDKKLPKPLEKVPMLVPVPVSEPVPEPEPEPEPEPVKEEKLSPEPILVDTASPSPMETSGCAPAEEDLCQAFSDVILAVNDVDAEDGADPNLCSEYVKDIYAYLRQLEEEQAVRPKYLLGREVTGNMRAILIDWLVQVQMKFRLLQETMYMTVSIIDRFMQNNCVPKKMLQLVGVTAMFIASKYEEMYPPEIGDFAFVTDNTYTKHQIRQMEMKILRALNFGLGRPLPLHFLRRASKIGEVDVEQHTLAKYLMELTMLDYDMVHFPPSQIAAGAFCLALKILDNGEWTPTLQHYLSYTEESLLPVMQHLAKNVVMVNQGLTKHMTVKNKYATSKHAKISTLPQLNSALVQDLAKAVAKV

Row | SMILES | pIC50 (OCI-AML5 cells; [3]) | inhibition at 1 µM (CDK1) | inhibition at 1 µM (CDK9/CyclinT) | pIC50 [1, 4] | pIC50 [1, 5] | pIC50 [1, 6] | pIC50 [1, 7] | pIC50 [1, 8] | pIC50 [1, 9] | Class [1] | pIC50 (OCI-AML5 cells; OCI-AML5 cells) | % degradation cyclin K-eGFP (cyclin KeGFP) | % CDK9 inhibition (CDK9/CyclinT) | pIC50 [1, 10] | pIC50 [1, 11] | pIC50 [1, 12] | pIC50 [1, 13] | pIC50 [1, 14] | pIC50 [1, 15] | Ratio shCUL4A/shCTRL [2]
1 | CC(=O)N[C@@H]1CCC[C@H](C(=O)Nc2cc(-c3cnn4c3CC(C)(C)C4)c(Cl)cn2)C1 [AZD4573, reference compound] | 9.00 | 90% | 100% | 8.96 | 8.97 | 8.97 | 8.98 | 8.78 | 9.14 | 2 | – | – | – | – | – | – | – | – | – | –
2 | CC(C)(C)OC(=O)N1CCC(C(=O)Nc2ncc(SCc3cccnc3)s2)CC1 [UOM-005205] | – | – | – | – | – | – | – | – | – | – | 5.53 | 32% | 40% | 5.29 | 5.52 | 5.53 | 5.29 | 5.48 | 5.37 | 0.65
3 | CSc1ccc(CC(=O)Nc2ncc(SCc3cccnc3)s2)cc1 [UOM-005206] | 5.93 | – | 67% | 6.34 | 6.06 | 5.89 | 5.88 | 5.88 | 6.07 | mixed 1-2 | – | 76% | – | – | – | – | – | – | – | 1.77
4 | O=C(CC1CCCC1)Nc1ncc(SCc2cccnc2)s1 [UOM-005225] | 5.42 | – | 73% | 5.34 | 5.63 | 5.53 | 5.39 | 5.39 | 5.52 | 2 | – | 2% | – | – | – | – | – | – | – | 1.07
5 | Cc1nc(CC(=O)Nc2ncc(SCc3cccnc3)s2)c(C)s1 [UOM-005227] | 5.25 | – | 53% | 5.21 | 5.11 | 5.19 | 5.32 | 5.32 | 5.27 | – | – | 0% | – | – | – | – | – | – | – | 1.12
6 | Cn1cc(CC(=O)Nc2ncc(SCc3cccnc3)s2)c2ccccc21 [UOM-005228] | 5.39 | – | 51% | 5.27 | 5.64 | 5.34 | 5.36 | 5.38 | 5.49 | 2 | – | 23% | – | – | – | – | – | – | – | 0.81
7 | O=C(Nc1ncc(SCc2cccnc2)s1)C1CCNCC1 [UOM-005283] | 5.41 | – | 71% | 5.43 | 5.38 | 5.33 | 5.41 | 5.52 | 5.55 | – | – | 4% | – | – | – | – | – | – | – | 0.91
8 | Cl.Cl.O=C(CC1CCNC1)Nc1ncc(SCc2cccnc2)s1 (stereo not drawn) [UOM-005300] | 5.15 | – | 64% | 5.27 | 5.47 | 5.27 | 5.35 | 5.54 | 5.52 | 2 | – | 5% | – | – | – | – | – | – | – | 1.07
9 | C=C(C(=O)Nc1ncc(SCc2cccnc2)s1)c1ccc2c(c1)[nH]c1ccc(Cl)cc12 [UOM-005447] | 5.13 | – | 73% | 5.27 | 5.49 | 5.46 | 5.40 | 5.39 | 5.32 | 2 | – | 63% | – | – | – | – | – | – | – | 0.72
10 | O=C(Cc1ccc(NC(=O)c2ccccn2)cc1)Nc1ncc(SCc2cccnc2)s1 [UOM-005474] | 5.91 | – | 59% | 6.00 | 6.12 | 6.03 | 5.97 | 6.02 | 6.26 | 2 | – | 5% | – | – | – | – | – | – | – | 1.03
11 | O=C(Cc1ccc(NC(=O)C23CC4CC(CC(C4)C2)C3)cc1)Nc1ncc(SCc2cccnc2)s1 [UOM-005477] | – | – | – | – | – | – | – | – | – | 2 | 5.90 | 6% | 81% | 5.99 | 6.13 | 5.96 | 5.92 | 6.03 | 6.23 | 0.9
12 | O=C(Cc1ccc(NC(=O)c2ccccc2)cc1)Nc1ncc(SCc2cccnc2)s1 [UOM-005478] | 5.87 | – | 82% | 5.97 | 6.26 | 5.97 | 5.98 | 5.99 | 6.45 | 2 | – | 8% | – | – | – | – | – | – | – | 0.95
13 | O=C(Cc1ccccn1)Nc1ncc(SCc2cccnc2)s1 [UOM-005566] | 5.18 | – | 15% | 5.22 | 5.41 | 5.15 | 5.05 | 5.12 | 5.26 | 2 | – | 4% | – | – | – | – | – | – | – | 1.07
14 | O=C(Cc1ccc(N2CCCCC2)cc1)Nc1ncc(SCc2cccnc2)s1 [UOM-005607] | 5.73 | – | 90% | 6.06 | 6.10 | 5.52 | 5.66 | 5.69 | 6.04 | mixed 1-2 | – | 30% | – | – | – | – | – | – | – | 0.9

From paper PMC12152147, “DDB1 engagement defines the selectivity of S656 analogs for cyclin K degradation over CDK inhibition” (EMBO Reports, 2025)
